# In EP0726903B1, “MATRIX METALLOPROTEASE INHIBITORS” (SYNTEX (U.S.A.) INC., priority 1993, dated 1995):
# Experiments:
# [1] = system: bovine PTH induced bone resorption; test: In vitro fetal rat long bone model of bone resorption (45Ca release); type: cell-based; conditions: ^45Ca release from fetal rat long bones, Bovine PTH (1-34) at 1x10^-8M, Day 6
# Description: An in vitro fetal rat long bone model was used to study the anti-bone resorptive effect of the compounds of formula (I). Bovine PTH was used to induce bone resorption in vitro. The bone resorptive effects were expressed by the amounts of ^45Ca released from the ^45Ca pre-labelled fetal rat long bones into the culture medium. The inhibitory effect of the compounds of formula (I) against bovine PTH induced bone resorption was expressed as mean percent inhibition ± sem.
# ^45Ca-prelabelled fetal rat long bones (from forearms) were dissected and cultured in Linbro dishes at 37°C overnight BGJb medium, supplemented with lmg/ml BSA. There were five pairs of bones in each group. The compounds of formula (I) were dissolved in ethanol first, then diluted to various concentrations and added simultaneously with Bovine PTH (1-34) at […] on Day 1. […] The assay was terminated on Day 6 with one media change on Day 3.
# At the end of each medium change, the ^45Ca present in the culture medium was counted. The remaining bones were digested with 0.1N HCl and the ^45Ca presented in the bone digest was also counted. The results are expressed as % of the total ^45Ca released from each pair of bones. Bovine PTH at 1x10^-8M induces bone resorption to the maximum level which is set as 100% and this concentration was used as standard. The level of base line bone resorption in the presence of medium only was set as 0%. All compound-treated groups were compared with bovine PTH (1-34) at 1x10^-8M.
# HFC = target: T1, HFC (Homo sapiens, UniProt P03956); test: In vitro enzyme inhibition assay (fluorescence, thiopeptide substrate), HFC; type: biochemical
# T1 sequence (P03956 100-469): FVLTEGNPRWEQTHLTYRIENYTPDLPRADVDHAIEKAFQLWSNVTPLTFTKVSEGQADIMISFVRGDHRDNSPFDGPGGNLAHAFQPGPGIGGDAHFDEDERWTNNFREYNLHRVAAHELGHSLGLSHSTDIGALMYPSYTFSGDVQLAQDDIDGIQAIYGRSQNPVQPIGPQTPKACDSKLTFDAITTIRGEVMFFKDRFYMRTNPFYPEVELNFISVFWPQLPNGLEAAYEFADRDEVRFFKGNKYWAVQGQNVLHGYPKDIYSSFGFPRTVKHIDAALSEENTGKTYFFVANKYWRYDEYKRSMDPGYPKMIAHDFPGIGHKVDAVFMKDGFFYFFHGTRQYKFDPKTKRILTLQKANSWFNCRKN
# [2] = system: release of ^35S-labelled glycosaminoglycans (GAG's) from cartilage explants; test: Inhibition of release of 35S-labelled glycosaminoglycans from cartilage explants; type: cell-based; conditions: Bos taurus; bovine knee joint cartilage explants, release induced by rhIL-1-alpha
# Procedure: This assay determines if the compounds of formula (I) inhibit the release of ^35S-labelled glycosaminoglycans (GAG's) from cartilage explants.
# Small cartilage explants (3 mm diameter) were prepared from freshly sacrificed bovine knee joints and labeled with ^35SO4. ^35S-labelled glycosaminoglycans (GAG's) are released into the culture medium in response to the addition of rhIL-1-alpha, which induces the expression of chondrocyte matrix metalloproteases (MMP's), including stromelysin and collagenase. The percent inhibition of labeled GAG's was corrected for spontaneous release in the absence of rh1L-1-alpha. Results for each group represent the mean ± the S.E.M. for five explants.
# STROM. = STROM. (Homo sapiens, UniProt P08254); test: In vitro enzyme inhibition assay (fluorescence, thiopeptide substrate), STROM.; type: biochemical
# Sequence of STROM. (P08254 100-477): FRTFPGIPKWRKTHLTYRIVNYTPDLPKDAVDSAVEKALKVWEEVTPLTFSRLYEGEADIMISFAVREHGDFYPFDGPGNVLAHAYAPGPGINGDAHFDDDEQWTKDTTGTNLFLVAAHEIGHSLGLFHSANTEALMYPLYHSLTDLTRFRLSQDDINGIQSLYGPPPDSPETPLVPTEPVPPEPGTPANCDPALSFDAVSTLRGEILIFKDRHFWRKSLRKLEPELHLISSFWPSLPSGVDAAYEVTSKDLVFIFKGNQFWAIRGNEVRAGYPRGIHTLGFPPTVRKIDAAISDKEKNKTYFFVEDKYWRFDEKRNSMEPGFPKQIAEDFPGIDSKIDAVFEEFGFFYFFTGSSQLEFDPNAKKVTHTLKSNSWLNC
SMILES,IC50 [1] [nM],IC50 ([1]; 144 h) [nM],IC50 (HFC) [nM],EC50 [2] [nM],IC50 (STROM.) [nM]
"COC(=O)c1ccc(NC(=O)[C@H](Cc2c[nH]c3ccccc23)NC(=O)C(CC(=O)NO)CC(C)C)cc1 (single isomer, unassigned) [Compound 3, N-(4-methyl-2-(N""-hydroxycarbamoyl)methylpentanoyl)-L-tryptophan-N'-(4-methoxycarbonylphenyl)carboxamide]",50,,,,
"COC(=O)c1ccc(NC(=O)[C@H](Cc2c[nH]c3ccccc23)NC(=O)C(CC(=O)NO)CC(C)C)cc1 (single isomer, unassigned) [Compound 4, N-(4-methyl-2-(N""-hydroxycarbamoyl)methylpentanoyl)-L-tryptophan-N'-(4-methoxycarbonylphenyl)carboxamide]",≥ 5000,,,,
"COC(=O)c1ccc(NC(=O)[C@H](CCSC)NC(=O)C(CC(C)C)CP(=O)(O)CSc2ccc3ccccc3n2)cc1 (stereo partly drawn) [Compound 1, N-(2-(hydroxy)(quinolin-2-ylthiomethyl)phosphinoylmethyl-4-methylpentanoyl)-L-methionine-N'-(4-methoxycarbonylphenyl)carboxamide]",≥ 5000,,,,
"COC(=O)c1ccc(NC(=O)[C@H](CC(C)C)NC(=O)C(CC(=O)NO)CC(C)C)cc1 (stereo partly drawn) [Compound 2, N-(4-methyl-2-(N""-hydroxycarbamoyl)methylpentanoyl)-L-leucine-N'-(4-methoxycarbonylphenyl)carboxamide]",,270,8.4,3500,1.4
